One may read the inhibition as the drop in the measured response relative to a control, in per cent. A low value points to a response near the control.

Type in all cases: functional
The test system of assay [1] is Lepidium sativum. Put plainly: Inhibition of germination of Lepidium sativum at 10 ppm relative to untreated control.
Assay [2] has as its system Lepidium sativum. In words: Inhibition of root growth of Lepidium sativum at 100 ppm relative to untreated control. To be noted: read-out: GI.
Assay [3] has as its system Lepidium sativum. Put plainly: Inhibition of germination of Lepidium sativum at 100 ppm relative to untreated control.
Assay [4] deals with Lepidium sativum. In words: Inhibition of root growth of Lepidium sativum at 1 ppm relative to untreated control. To be noted: read-out: GI.
Assay [5] deals with Lepidium sativum. In words: Inhibition of root growth of Lepidium sativum at 0.38 microM relative to untreated control. To be noted: read-out: GI.
The subject of assay [6] is Lepidium sativum. In words: Inhibition of root growth of Lepidium sativum at 3.8 microM relative to untreated control. To be noted: read-out: GI.
In assay [7] the test system is Lepidium sativum. Put plainly: Inhibition of root growth of Lepidium sativum at 1.1 microM relative to untreated control. To be noted: read-out: GI.

In the case of `CCOC(=O)CON1C(=O)c2ccccc2C1=O`, the inhibition at 10 ppm in the assay on Lepidium sativum [1] amounted to 0%. For the same compound, the inhibition of growth at 100 ppm in the assay on Lepidium sativum [2] was found to be 100%. The compound also registered an inhibition at 100 ppm in the assay with Lepidium sativum [3] of 100%. Also, in the assay with Lepidium sativum [4], the inhibition of growth at 1 ppm came out at 0%.
For the compound `CCOC(=O)[C@@H](C)ON1C(=O)c2ccccc2C1=O`, the inhibition of growth at 0.38 µM in the assay with Lepidium sativum [5] was determined as 0%. In the assay with Lepidium sativum [6], the inhibition of growth at 3.8 µM came out at 14%. Further, the inhibition of growth at 1.1 µM in the assay with Lepidium sativum [7] is 5%.
`CCCCCOC(=O)C(C)ON1C(=O)c2ccccc2C1=O` (configuration not stated): the inhibition of growth at 1 ppm in the assay on Lepidium sativum [4] amounted to 64%.
Regarding `CCOC(=O)C(C)ON1C(=O)c2ccccc2C1=O` (configuration not stated), the inhibition at 10 ppm in the assay with Lepidium sativum [1] was found to be 0%. In addition, in the assay on Lepidium sativum [2], the inhibition of growth at 100 ppm stood at 100%. In the assay on Lepidium sativum [3], the inhibition at 100 ppm came to 100%. Besides, the inhibition of growth at 1 ppm with Lepidium sativum [4] was determined as 68%.
As for `CCOC(=O)[C@H](C)ON1C(=O)c2ccccc2C1=O`, the inhibition of growth at 0.38 µM in the assay on Lepidium sativum [5] stood at 35%. Moreover, the inhibition of growth at 3.8 µM with Lepidium sativum [6] was 72%. The inhibition of growth at 1.1 µM in the assay with Lepidium sativum [7] was 49%.
Take `CC(ON1C(=O)c2ccccc2C1=O)C(=O)OC(C)(C)C` (configuration not stated): in the assay with Lepidium sativum [4], the inhibition of growth at 1 ppm was determined as 1%.
For `CCC(C)OC(=O)C(C)ON1C(=O)c2ccccc2C1=O` (configuration not stated), in the assay with Lepidium sativum [4], the inhibition of growth at 1 ppm amounted to 42%.
Still for that read-out and setting: for `CCCOC(=O)C(C)ON1C(=O)c2ccccc2C1=O` (configuration not stated) the value was 64%; for `CC(C)OC(=O)C(C)ON1C(=O)c2ccccc2C1=O` (configuration not stated), 51%; for `CCCCOC(=O)C(C)ON1C(=O)c2ccccc2C1=O` (configuration not stated), 59%.
Regarding `CCOC(=O)C(Cc1ccccc1)ON1C(=O)c2ccccc2C1=O` (configuration not stated), the inhibition of growth at 100 ppm in the assay on Lepidium sativum [2] came out at 70%. The compound further registered an inhibition at 100 ppm in the assay on Lepidium sativum [3] of 0%. In addition, the inhibition of growth at 1 ppm with Lepidium sativum [4] worked out at 0%.
Turning to `CCCC(C)ON1C(=O)c2ccccc2C1=O` (configuration not stated), the inhibition of growth at 100 ppm in the assay with Lepidium sativum [2] was found to be 56%. In addition, the inhibition at 100 ppm in the assay on Lepidium sativum [3] was 0%. For the same compound, the inhibition of growth at 1 ppm in the assay on Lepidium sativum [4] was 0%.
`CCOC(=O)C(C)CN1C(=O)c2ccccc2C1=O` (configuration not stated): in the assay with Lepidium sativum [2], the inhibition of growth at 100 ppm is 41%. The compound also had an inhibition at 100 ppm in the assay with Lepidium sativum [3] of 0%. In addition, the inhibition of growth at 1 ppm with Lepidium sativum [4] stood at 0%.
For the compound `COC(=O)C(C)ON1C(=O)c2ccccc2C1=O` (configuration not stated), the inhibition of growth at 1 ppm in the assay with Lepidium sativum [4] was 64%.
Consider `CCCCCCC(ON1C(=O)c2ccccc2C1=O)C(=O)OCC` (configuration not stated), for which, in the assay with Lepidium sativum [2], the inhibition of growth at 100 ppm is 72%. 100 ppm produced 0% inhibition with Lepidium sativum [3]. For the same compound, in the assay on Lepidium sativum [4], the inhibition of growth at 1 ppm is 0%.
Consider `CCOC(=O)C(ON1C(=O)c2ccccc2C1=O)c1ccccc1` (configuration not stated), for which, in the assay on Lepidium sativum [2], the inhibition of growth at 100 ppm turned out to be 60%. The inhibition at 100 ppm in the assay with Lepidium sativum [3] amounted to 0%. In the assay with Lepidium sativum [4], the inhibition of growth at 1 ppm came to 0%.
With `CCOC(=O)C(C)(C)ON1C(=O)c2ccccc2C1=O`, the inhibition at 10 ppm in the assay on Lepidium sativum [1] is 0%. Besides, the inhibition of growth at 100 ppm in the assay on Lepidium sativum [2] was determined as 95%. Moreover, in the assay with Lepidium sativum [3], the inhibition at 100 ppm was 60%. In addition, the inhibition of growth at 1 ppm in the assay on Lepidium sativum [4] came to 0%.
In the assay with Lepidium sativum [1], `CCOC(=O)C(CC)ON1C(=O)c2ccccc2C1=O` (configuration not stated) registered an inhibition at 10 ppm of 0%. Further, the inhibition of growth at 100 ppm with Lepidium sativum [2] was 94%. Also, in the assay with Lepidium sativum [3], at 100 ppm the inhibition was 80%. In the assay on Lepidium sativum [4], the inhibition of growth at 1 ppm turned out to be 0%.
On to `CCOC(=O)C(C)ON1C(=O)c2ccccc2C1=O` (racemic), for which the inhibition of growth at 0.38 µM in the assay on Lepidium sativum [5] stood at 14%. In addition, the inhibition of growth at 3.8 µM in the assay on Lepidium sativum [6] was found to be 68%. Further, the inhibition of growth at 1.1 µM with Lepidium sativum [7] came out at 33%.

The values above are taken from ChEMBL document CHEMBL3044902, “Effect of Optically Active Ethyl 2-Phthalimidooxypropionate on the Growth of Cress, Lepidium sativum” (1999).
